From US8691764B2, “Inhibitors of NF-κB activity” (The Research Foundation for the State University of New York, priority 2007, dated 2014)

Assays:
NF-κB p65 = assay: Co-immunoprecipitation of annexin 1 with p65, BxPC-3 cells; format: cell-based, human; details: 3 h, NO-ASA 20 μM or Dex 4 μM
Experimental: The gel shift assays were carried out according to the manufacturer's protocol (Panomics). Nuclear proteins (10 μg) from each sample were mixed with 10 ng biotinylated p65 double-stranded oligonucleotide probes (5′-[…]-3′ and its complement) (SEQ ID NO:9) in the presence of 1 μg Poly(I/C) DNA. The mixture was incubated at room temperature for 30 min. The binding complex was then resolved using a 6% polyacrylamide/glycerol gel in 0.5% Tris-borate-EDTA, transferred onto a nylon membrane, and fixed on the membrane by UV cross-linking The biotin-labeled probe was detected with streptavidin-horseradish peroxidase. Co-immunoprecipitation was performed as follows: about 500 μg of cell extracts were incubated overnight with 5 μg of agarose-conjugated anti-p65 (Santa Cruz Biotechnology) or anti-annexin 1 antibody (Santa Cruz, Calif.). The precipitate was washed five times with washing buffer (Santa Cruz Biotechnology), dissolved in 2× Laemmli buffer, boiled, and separated by SDS-PAGE and detected by Western blot analysis using ECL™ (Amersham Biosciences) as described above. Control experiments were performed by using rabbit IgG for p65 and mouse IgG2b for annexin 1, respectively (Santa Cruz Biotechnology).

annexin 1 = assay: Annexin 1 levels in small intestine epithelial cells of treated Min and wild-type mice; format: in vivo; details: NO-ASA 100 mg/kg or Dex 10 mg/kg daily for 7 days
Experimental: (§1) To assess whether these changes occur in vivo, the inventors studied isolated small intestine epithelial cells from Min mice and the corresponding wild type mice C57BL/6J (of which the Min mice are a congenic derivative) treated with NO-ASA 100 mg/kg or Dex 10 mg/kg daily for 7 days. Min (multiple intestinal neoplasia), a mutant allele of the murine APC (adenomatous polyposis coli) locus, encodes a nonsense mutation at codon 850. Heterozygous Min mutants spontaneously develop tumors in the intestine and represent a model of intestinal carcinogenesis (M. Lipkin et al., Ann. N.Y. Acad. Sci. 889:14-19 (1999); A. Moser, H. Pitot, W. Dove, Science 247:322-324 (1990)). The levels of annexin 1 were increased in both Min and wild-type mice treated with either NO-ASA or Dex (FIG. 7A and FIG. 8A). The induction of annexin 1 by NO-ASA or Dex was accompanied by the inhibition of NF-κB activity (FIGS. 7B and 8B).
(§2) A mouse model of multiple intestinal neoplasia, the Min mice, and the congenic parent wild-type mice were used to test the in vivo action of NO-ASA in the induction of annexin 1. Both wild-type and Min mice were treated for 7 days with vehicle or NO-ASA 100 mg/kg. After 7 days of treatment, the mice were sacrificed and the epithelial cells were evaluated as in Example 6 by confocal microscopy.

NF-κB = NF-κB activity in treated Min and wild-type mice; format: in vivo; details: NO-ASA 100 mg/kg or Dex 10 mg/kg daily for 7 days
Experimental: as §1, §2

pancreatic cancer = details: animal tumor model; cited from earlier work

Substance: nitric oxide-donating aspirin [NO-ASA]
- co-immunoprecipitation of annexin 1 with p65 (NF-κB p65): co-immunoprecipitated with p65
- levels of annexin 1 (annexin 1; Min mice): increased
- levels of annexin 1 (annexin 1; wild-type mice): increased
- NF-κB activity (NF-κB; Min mice): inhibited NF-κB activity
- NF-κB activity (NF-κB; wild-type mice): inhibited NF-κB activity
- prevention of pancreatic cancer (pancreatic cancer): almost completely prevents pancreatic cancer
